Test in all cases: NCI tumour cell line growth inhibition, 48 h
The test system of test [1] is ACHN renal.
Test [2] concerns BT-549 breast.
In test [3] the test system is CCRF-CEM leukemia.
The test system of test [4] is HCT-116 colon.
For test [5], the system named is HT29 colon.
The subject of test [6] is NCI/ADR-RES ovarian.
Test [7] relates to UACC-62 melanoma.
Test [8] deals with COLO 205 colon.
For test [9], the system named is OVCAR-5 ovarian.
In test [10] the test system is A498 renal.

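Each compound was tested at five concentrations against cells in 96-well plates for 48 hours. GI50 is the concentration that inhibits growth by half. The concentration for full growth arrest is given as TGI.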

Turning to `CCOP(=O)(OCC)C(NC(c1ccccc1)c1ccccc1)c1ccccc1` (stereo not given), the GI50 is 13.2 µM in test [1]; 15.4 µM in [2]; 18.2 µM in test [3]; 13.2 µM in test [4]; 32.2 µM in test [5]; 11 µM in [6]. Besides, the GI50 in [7] was 12.1 µM. Also, the TGI in test [1] was 26.3 µM; in test [2], 34.6 µM; in test [3], 58.8 µM; in test [4], 26 µM; in test [5], more than 100 µM; in [6], 24.8 µM. In addition, the TGI in test [7] was found to be 25.9 µM.

In the case of `N[C@@H](Cc1c[nH]c2ccccc12)C(=O)NC1CCN(C(=O)c2c[nH]c3ccccc23)CC1`, the GI50 is more than 100 µM in test [1]; more than 100 µM in test [2]; more than 100 µM in test [3]; 47.9 µM in test [8]; 36.3 µM in test [4]; more than 100 µM in [5]. Further, the GI50 in test [6], in test [9] and in [7] was more than 100 µM each time. Further, the TGI in test [1], in test [2], in [3], in test [8], in test [4] and in [5] was more than 100 µM in each case. Besides, the TGI in test [6], in test [9] and in test [7] was more than 100 µM each time.

For the compound `O=C1CCC(Cc2ccc(Cl)cc2Cl)C(=O)N1` (stereo not given), the TGI in test [1], in test [2], in [3], in test [8], in [4] and in test [5] was more than 100 µM each time. Besides, the TGI in test [6], in test [9] and in [7] was more than 100 µM throughout.

For the compound `Cc1cn(C2CC(F)C(CO)O2)c(=O)[nH]c1=O` (stereo not given), the GI50 was more than 100 µM in [1]; more than 100 µM in test [2]; more than 100 µM in [3]; more than 100 µM in test [8]; more than 100 µM in [4]; 98.8 µM in test [5]. Moreover, the GI50 in test [6], in [9] and in test [7] was more than 100 µM throughout. Further, the TGI in test [1], in test [2], in test [3], in [8], in [4] and in test [5] was more than 100 µM in each case. Also, the TGI in [6], in [9] and in test [7] was more than 100 µM in each case.

For the compound `CCCCn1c2cc(OCc3cn(-c4ccc(Cl)cc4)nn3)ccc2c2ccnc(C)c21`, the GI50 is 5.08 µM in [10]; 5.06 µM in test [1]; 9.27 µM in [3]; 5.76 µM in test [8]; 5.11 µM in test [4]; 6.25 µM in [5]. Besides, the figures for the GI50 in test [6], in test [9] and in test [7] were 6.98 µM, 6.55 µM and 4.96 µM, respectively. For the same compound, the TGI in [10] is 14.1 µM; in test [1], 10.3 µM; in test [3] it was more than 33.3 µM; in test [8], 14.4 µM; in [4] it was 13.2 µM; in test [5], more than 33.3 µM. The TGI in [6] was 29.7 µM; in test [9], 21.5 µM; in test [7] it was 11.8 µM.

On to `CCCC1c2c(ccc3ccccc23)Oc2ccc3ccccc3c21`, for which the TGI in test [10] is 78 µM; in test [1], more than 100 µM; in test [2], more than 100 µM; in [8], more than 100 µM; in test [4], more than 100 µM; in test [5] it was more than 100 µM. Further, the TGI in test [6], in [9] and in test [7] was more than 100 µM in each case.

As for `OCCCCC#Cc1ccccc1C#Cc1ccccc1`, the GI50 was 15.2 µM in test [1]; 11.6 µM in test [2]; 12.9 µM in [8]; 16.8 µM in test [4]; 13.2 µM in test [5]; 17 µM in test [6]. Further, the GI50 was 17.7 µM in test [9] and 11.1 µM in [7]. The TGI is 29.1 µM in [1]; 25.9 µM in [2]; 36.3 µM in [8]; 31.6 µM in [4]; more than 100 µM in test [5]; 47.3 µM in test [6]. In addition, the TGI in [9] is 43.6 µM; in test [7], 23.5 µM.

With `Cc1c(C#N)cccc1-c1cc(-c2cn(Cc3cccc(C(C)(C)O)n3)nn2)nc(N)n1`, the GI50 in test [1] was 28.3 µM; in [2] it was 14.9 µM; in test [3], 16.3 µM; in test [8] it was 25.9 µM; in test [4] it was 32.1 µM; in test [5], 28.2 µM. Also, the figures for the GI50 in test [6], in test [9] and in test [7] were 24.1 µM, more than 100 µM and 12 µM, respectively. In addition, the TGI is more than 100 µM in [1]; 69.1 µM in [2]; more than 100 µM in test [3]; more than 100 µM in test [8]; more than 100 µM in [4]; more than 100 µM in [5]. For the same compound, the values for the TGI in [6], in test [9] and in [7] were more than 100 µM, more than 100 µM and 57.9 µM, respectively.

These data come from PubChem BioAssay (NCI).
